These are literature values, as cited in US8821921B2, “Vitamin D3 for the transdermal treatment of pain and inflammation” (Anzamed International Limited, priority 2009, dated 2014).

The data set relates to diabetic neuropathic pain. The following applies: daily oral doses, patients with diabetic neuropathy.

With `C=C1CC[C@H](O)C/C1=C/C=C1\CCC[C@]2(C)[C@@H]([C@H](C)CCCC(C)C)CC[C@@H]12` [vitamin D3, cholecalciferol], the diabetic neuropathic pain result is “significant reduction”.
